Activity calls are given as the source filed them. The calls are words filed in the database; no cut-off is given here.
How the values were obtained:
[1] = Cytotoxicity against PMA-differentiated human U937 macrophages assessed as cell viability at 80 uM after 24 hrs by MTT assay relative to untreated control; format: cell-based, U-937; conditions: read-out: Activity
[2] = Cytotoxicity against PMA-differentiated human U937 macrophages assessed as cell viability at 40 uM after 24 hrs by MTT assay relative to untreated control; format: cell-based, U-937; conditions: read-out: Activity
[3] = Cytotoxicity against PMA-differentiated human U937 macrophages assessed as cell viability at 20 uM after 24 hrs by MTT assay relative to untreated control; format: cell-based, U-937; conditions: read-out: Activity
[4] = Cytotoxicity against PMA-differentiated human U937 macrophages assessed as cell viability at 10 uM after 24 hrs by MTT assay relative to untreated control; format: cell-based, U-937; conditions: read-out: Activity
[5] = biological target: Toll-like receptor 4 (Homo sapiens) (UniProt O00206); assay: (§1) Inhibition of TLR4 in human U937-3xkappaB-LUC cells assessed as inhibition of Aggregatibacter actinomycetemcomitans LPS-induced NF-kappaB activation at 50 uM preincubated for 30 mins followed by LPS stimulation and measured after 6 hrs post LPS challenge by Bright-Glo luciferase reporter gene assay relative to control
[6] = biological target: Toll-like receptor 4 (Homo sapiens) (UniProt O00206); assay: as §1, with “20” for “50”
[7] = biological target: Toll-like receptor 4 (Homo sapiens) (UniProt O00206); assay: as §1, with “10” for “50”
[8] = biological target: Toll-like receptor 4 (Homo sapiens) (UniProt O00206); assay: as §1, with “5” for “50”
U-937 [9] = assay: Antiinflammatory activity in PMA-differentiated human U937 cells assessed as inhibition of LPS-induced TNFalpha secretion at 80 uM preincubated for 2 hrs followed by LPS stimulation and measured after 24 hrs post LPS challenge by ELISA relative to control; format: functional
U-937 [10] = assay: Antiinflammatory activity in PMA-differentiated human U937 cells assessed as inhibition of LPS-induced TNFalpha secretion at 40 uM preincubated for 2 hrs followed by LPS stimulation and measured after 24 hrs post LPS challenge by ELISA relative to control; format: functional
U-937 [11] = assay: Antiinflammatory activity in PMA-differentiated human U937 cells assessed as inhibition of LPS-induced TNFalpha secretion at 20 uM preincubated for 2 hrs followed by LPS stimulation and measured after 24 hrs post LPS challenge by ELISA relative to control; format: functional
U-937 [12] = assay: Antiinflammatory activity in PMA-differentiated human U937 cells assessed as inhibition of LPS-induced TNFalpha secretion at 10 uM preincubated for 2 hrs followed by LPS stimulation and measured after 24 hrs post LPS challenge by ELISA relative to control; format: functional
[13] = biological target: Toll-like receptor 4 (Homo sapiens) (UniProt O00206); assay: as §1, with “activation” for “activation at 50 uM”
U-937 [14] = assay: Antiinflammatory activity in human U937 cells assessed as inhibition of LPS-induced IL-6 production at 40 to 80 uM preincubated for 2 hrs followed by LPS stimulation and measured after 24 hrs post LPS challenge by ELISA; format: functional, cell-based
U-937 [15] = assay: Antiinflammatory activity in human U937 cells assessed as inhibition of LPS-induced IL-8 production at 40 to 80 uM preincubated for 2 hrs followed by LPS stimulation and measured after 24 hrs post LPS challenge by ELISA; format: functional, cell-based
U-937 [16] = assay: Antiinflammatory activity in human U937 cells assessed as inhibition of LPS-induced IL-8 production at 20 uM preincubated for 2 hrs followed by LPS stimulation and measured after 24 hrs post LPS challenge by ELISA; format: functional, cell-based
U-937 [17] = assay: Antiinflammatory activity in human U937 cells assessed as inhibition of LPS-induced IL-8 production at 10 to 20 uM preincubated for 2 hrs followed by LPS stimulation and measured after 24 hrs post LPS challenge by ELISA; format: functional, cell-based
U-937 [18] = assay: Antiinflammatory activity in human U937 cells assessed as inhibition of LPS-induced IL-1beta production preincubated for 2 hrs followed by LPS stimulation and measured after 24 hrs post LPS challenge by ELISA; format: functional, cell-based
U-937 [19] = assay: Antiinflammatory activity in human U937 cells assessed as inhibition of Escherichia coli LPS-induced IL-1beta secretion at 10 to 80 uM preincubated for 2 hrs followed by LPS stimulation and measured after 24 hrs post LPS challenge by ELISA; format: functional, cell-based
U-937 [20] = assay: Antiinflammatory activity in human U937 cells assessed as inhibition of Escherichia coli LPS-induced TNFalpha secretion at 10 to 80 uM preincubated for 2 hrs followed by LPS stimulation and measured after 24 hrs post LPS challenge by ELISA; format: functional, cell-based
[21] = biological target: Toll-like receptor 4 (Homo sapiens) (UniProt O00206); assay: Inhibition of TLR4 in human U937-3xkappaB-LUC cells assessed as inhibition of Escherichia coli LPS-induced NF-kappaB activation at 5 to 50 uM preincubated for 30 mins followed by LPS stimulation and measured after 6 hrs post LPS challenge by Bright-Glo luciferase reporter gene assay relative to control
U-937 [22] = assay: Antiinflammatory activity in human U937 cells assessed as inhibition Aggregatibacter actinomycetemcomitans LPS-induced IL-1beta secretion at 10 to 80 uM preincubated for 2 hrs followed by LPS stimulation and measured after 24 hrs post LPS challenge by ELISA; format: functional, cell-based
U-937 [23] = assay: Antiinflammatory activity in human U937 cells assessed as inhibition Aggregatibacter actinomycetemcomitans LPS-induced TNFalpha secretion at 10 to 80 uM preincubated for 2 hrs followed by LPS stimulation and measured after 24 hrs post LPS challenge by ELISA; format: functional, cell-based
[24] = biological target: Toll-like receptor 4 (Homo sapiens) (UniProt O00206); assay: as §1, with “activation at 5 to 50 uM” for “activation at 50 uM”
[25] = biological target: T1, Peroxisome proliferator-activated receptor gamma (Homo sapiens) (UniProt P37231); assay: Binding affinity to recombinant human PPARgamma LBD at 40 uM by TR-FRET based green polar-screen PPAR competitor assay
T1 sequence (whole entry): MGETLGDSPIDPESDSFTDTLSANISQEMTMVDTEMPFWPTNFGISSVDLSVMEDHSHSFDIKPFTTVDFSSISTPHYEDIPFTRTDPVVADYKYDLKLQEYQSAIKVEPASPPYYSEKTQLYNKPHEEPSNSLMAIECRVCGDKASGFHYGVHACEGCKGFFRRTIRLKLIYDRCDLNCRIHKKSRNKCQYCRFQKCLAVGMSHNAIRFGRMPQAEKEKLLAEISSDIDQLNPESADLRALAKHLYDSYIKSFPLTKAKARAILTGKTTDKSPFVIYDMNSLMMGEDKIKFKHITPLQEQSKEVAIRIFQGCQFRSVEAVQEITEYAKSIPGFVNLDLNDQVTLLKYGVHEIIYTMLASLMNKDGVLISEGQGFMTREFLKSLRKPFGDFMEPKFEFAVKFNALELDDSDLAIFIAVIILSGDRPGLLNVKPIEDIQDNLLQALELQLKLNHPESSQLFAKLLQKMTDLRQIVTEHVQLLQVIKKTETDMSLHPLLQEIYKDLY

U-937 [26] = assay: Antiinflammatory activity in human U937 cells assessed as inhibition of LPS-induced IL-1beta production at 20 uM preincubated for 2 hrs followed by LPS stimulation and measured after 24 hrs post LPS challenge by ELISA; format: functional, cell-based
U-937 [27] = assay: Antiinflammatory activity in human U937 cells assessed as inhibition of LPS-induced IL-6 production at 10 to 80 uM preincubated for 2 hrs followed by LPS stimulation and measured after 24 hrs post LPS challenge by ELISA; format: functional, cell-based
U-937 [28] = assay: Antiinflammatory activity in human U937 cells assessed as inhibition of LPS-induced IL-1beta production at 10 to 80 uM preincubated for 2 hrs followed by LPS stimulation and measured after 24 hrs post LPS challenge by ELISA; format: functional, cell-based
U-937 [29] = assay: Antiinflammatory activity in human U937 cells assessed as inhibition of LPS-induced IL-8 production preincubated for 2 hrs followed by LPS stimulation and measured after 24 hrs post LPS challenge by ELISA; format: functional

Toll-like receptor 4 (Homo sapiens), sequence (O00206 whole entry, the tested form may be a part): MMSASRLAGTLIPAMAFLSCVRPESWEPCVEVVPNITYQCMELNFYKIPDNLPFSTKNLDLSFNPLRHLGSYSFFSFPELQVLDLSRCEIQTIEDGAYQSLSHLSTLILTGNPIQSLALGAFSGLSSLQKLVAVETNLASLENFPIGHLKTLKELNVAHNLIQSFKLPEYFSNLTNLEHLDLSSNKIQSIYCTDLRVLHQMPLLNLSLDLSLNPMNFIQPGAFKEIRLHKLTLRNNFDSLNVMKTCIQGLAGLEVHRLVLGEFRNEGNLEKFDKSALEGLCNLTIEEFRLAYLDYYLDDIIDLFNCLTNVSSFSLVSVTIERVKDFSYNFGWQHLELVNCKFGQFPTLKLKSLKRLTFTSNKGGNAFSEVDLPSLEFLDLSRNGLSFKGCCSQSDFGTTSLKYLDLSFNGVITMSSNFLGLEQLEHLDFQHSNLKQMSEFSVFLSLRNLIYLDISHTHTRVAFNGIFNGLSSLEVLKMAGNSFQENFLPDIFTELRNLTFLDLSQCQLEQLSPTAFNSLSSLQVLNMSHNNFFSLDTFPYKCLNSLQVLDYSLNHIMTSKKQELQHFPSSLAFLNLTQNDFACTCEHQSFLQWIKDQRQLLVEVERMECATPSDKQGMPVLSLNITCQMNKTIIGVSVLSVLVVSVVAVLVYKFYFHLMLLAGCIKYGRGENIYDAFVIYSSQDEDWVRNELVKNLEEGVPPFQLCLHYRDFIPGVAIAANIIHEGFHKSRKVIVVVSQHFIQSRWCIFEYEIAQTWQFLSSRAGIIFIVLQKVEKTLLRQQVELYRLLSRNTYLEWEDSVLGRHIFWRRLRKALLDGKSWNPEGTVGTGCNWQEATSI

Compound	viability at 24 h, 80 µM [1] [%]	viability at 24 h, 40 µM [2] [%]	viability at 24 h, 20 µM [3] [%]	viability at 24 h, 10 µM [4] [%]	inhibition [5] [%]	inhibition [6] [%]	inhibition [7] [%]	inhibition [8] [%]	inhibition at 80 µM (U-937 [9]) [%]	inhibition at 40 µM (U-937 [10]) [%]	inhibition at 20 µM (U-937 [11]) [%]	inhibition at 10 µM (U-937 [12]) [%]	inhibition [13]	Activity [25]	other results
CCCCCc1cc(O)cc(O)c1Oc1cc2c(cc1OC)C(CCCC)(OC)OC2=O (configuration not stated)	24	87	96	116	34	29	15	12	100	0	0	0			
CCCCCc1c2c(cc(O)c1C(=O)O)OC(=O)c1c(cc(OC)cc1C(=O)CCCC)O2 [LOBARIC ACID]	90	73	121	118	99	78	42	29	100	100	89	1	Dose-dependent effect	Active	inhibition (U-937 [14]): Active; inhibition (U-937 [15]): Active; inhibition (U-937 [16]): inactive; inhibition (U-937 [17]): inactive; inhibition (U-937 [18]): Dose-dependent effect; inhibition (U-937 [19]): Dose-dependent effect; inhibition (U-937 [20]): Dose-dependent effect; inhibition [21]: Dose-dependent effect; inhibition (U-937 [22]): Dose-dependent effect; inhibition (U-937 [23]): Dose-dependent effect; inhibition [24]: Dose-dependent effect
CCCCCc1c(Oc2cc(OC)cc(C(=O)CCCC)c2C(=O)OC)c(O)cc(O)c1C(=O)O	48	67	86	96	98	75	52	37	100	55	0	0	Dose-dependent effect	Active	inhibition (U-937 [14]): Active; inhibition (U-937 [15]): Active; inhibition (U-937 [17]): inactive; inhibition (U-937 [18]): Dose-dependent effect; inhibition (U-937 [26]): inactive; inhibition (U-937 [19]): Active; inhibition (U-937 [20]): Active; inhibition [21]: Active; inhibition (U-937 [22]): Active; inhibition (U-937 [23]): Active; inhibition [24]: Active
CCC/C=C1\OC(=O)c2cc(Oc3c(O)cc(O)cc3CCCCC)c(OC)cc21	10	38	101	117	99	60	28	26	100	90	0	0	Dose-dependent effect		inhibition (U-937 [27]): inactive; inhibition (U-937 [28]): inactive
CN(CCOc1ccc(CC2SC(=O)NC2=O)cc1)c1ccccn1 (configuration not stated)														Active	
COC(=O)c1c(C)cc(O)c(C=O)c1O [METHYL HAEMATOMMATE]	82	102	102	119	67	38	24	17	80	41	3	0			inhibition (U-937 [29]): Dose-dependent effect
CCCCCc1c(Oc2cc3c(cc2OC)C(CCCC)(OC)OC3=O)c(O)cc(O)c1C(=O)O (configuration not stated)	52	121	131	126	84	63	39	27	100	3	0	0			
CCCCCc1cc(O)cc(O)c1Oc1cc(OC)cc(C(=O)CCCC)c1C(=O)OC	66	85	105	119	52	52	39	23	55	0	0	0		Active	
COC(=O)c1c(C)cc(O)c(C)c1O [ATRARIC ACID]	125	116	118	112	25	36	19	27	0	0	0	0		inactive	
CCCCCc1cc(O)cc(O)c1Oc1cc(OC)cc2c1C(=O)OC2(O)CCCC (configuration not stated)	114	122	124	118	36	48	29	26	7	0	0	0		Active	
